Reference: patent US20260166141A1, “PHARMACEUTICAL COMPOSITION OF RIP2 INHIBITOR IN COMBINATION WITH IMMUNE CHECKPOINT INHIBITOR AND USE THEREOF” (NINGBO COMBIREG PHARMACEUTICAL TECHNOLOGY CO., LTD., priority 2022, published 2026)

How the values were obtained:
Type in all cases: in vivo
colorectal cancer (MC38) [1] = experiment: colorectal cancer (MC38) tumor-bearing model in C57BL/6 mice, GSK583 combined with atezolizumab; conditions: for tumor growth (tumor volume progression): atezolizumab 150 μg/mouse i.p. Days 0, 4, 11, GSK583 1 mg/kg i.v. once every 4 days, 4 doses, compared to IgG control
Procedure: (§1) Test substances atezolizumab (Roche) and IgG control antibody (in VivoMAb human IgG1 isotype control; BioXCell, BE0297) were prepared in saline. GSK583 was formulated as a 20× stock solution in DMSO and diluted to the dosing concentration with saline containing 5% polyoxyl 35 castor oil (Cremophor EL) before use.
(§2) Experimental animals and tumor lines: SPF-grade male wild-type C57BL/6 mice (6 to 8 weeks old, 20 to 25 g) were purchased from the Laboratory Animal Resources Center, Tsinghua University. The cells used in the experiment were murine colorectal cancer cells (MC38), which were purchased from the Cell Bank of Peking Union Medical College.
According to the method shown in (A and B of FIG. 3), the mice were subcutaneously inoculated with MC38 cells at a concentration of 5×10^6 cells/mL and 0.1 mL/mouse. When the tumor grew to a volume within the range of 100 mm^3, the mice were randomly divided into 4 groups based on tumor volume, with 6 to 8 mice per group, and dosing was initiated. The dosing regimen was as follows: (i) blank control (IgG control, 150 μg/mouse) group; (ii) GSK583 (1 mg/kg) group; (iii) atezolizumab (150 μg/mouse) group; (iv) atezolizumab (150 μg/mouse)+GSK583 (1 mg/kg). GSK583 was administered via intravenous injection once every 4 days for a total of 4 doses; IgG control and atezolizumab were administered via intraperitoneal injection on Days 0, 4, and 11 for a total of 3 doses. The day of grouping and dosing was recorded as Day 0. During the dosing process, the animals were weighed every 2 to 3 days, and the long and short diameters of the tumor were measured with a vernier caliper. The tumor size was calculated by the formula: (½)×long diameter×(short diameter)^2. The experiment was terminated on Day 15. After the mice were euthanized and dissected, the tumor was removed and weighed, and the tumor inhibition rate was calculated.

colorectal cancer (MC38) [2] = experiment: colorectal cancer (MC38) tumor-bearing model in WT and RIP2−/− C57BL/6 mice, atezolizumab; conditions: for tumor growth (tumor volume progression): 150 μg/mouse i.p. Days 0, 4, 11, 18; for tumor weight: compared to corresponding control group
Procedure: Test substances atezolizumab (Roche) and IgG control antibody (in VivoMAb human IgG1 isotype control; BioXCell, BE0297) were prepared in saline. Experimental animals and tumor lines: SPF-grade male wild-type (WT) C57BL/6 mice (20 to 25 g) and RIP2 knockout (RIP2^−/−) mice (6 to 8 weeks old, 20 to 25 g) were purchased from Shanghai Model Organisms Center, Inc. The mice were generated using CRISPR-Cas9 technology and bred at the Laboratory Animal Resources Center, Tsinghua University. The cells used in the experiment were murine colorectal cancer cells (MC38), which were purchased from the Cell Bank of Peking Union Medical College.
According to the method shown in (A and B of FIG. 1), the mice were subcutaneously inoculated with MC38 cells at a concentration of 5×10^6 cells/mL and 0.1 mL/mouse. When the tumor grew to a volume within the range of 100 mm^3, WT mice and RIP2^−/− mice were randomly divided into 2 groups based on tumor volume, with 6 to 8 mice per group, and dosing was initiated. The dosing regimen was as follows: (i) WT-blank control (WT-IgG control, 150 μg/mouse) group; (ii) WT-atezolizumab (150 μg/mouse) group; (iii) RIP2^−/−-blank control (RIP2^−/−-IgG control, 150 μg/mouse) group; (iv) RIP2^−/−-atezolizumab (150 μg/mouse) group. IgG control and atezolizumab were administered via intraperitoneal injection on Days 0, 4, 11, and 18 for a total of 4 doses. The day of grouping and dosing was recorded as Day 0. During the dosing process, the animals were weighed every 2 to 3 days, and the long and short diameters of the tumor were measured with a vernier caliper. The tumor size was calculated by the formula: (1/2)×long diameter×(short diameter)^2. The experiment was terminated on Day 20. After the mice were euthanized and dissected, the tumor was removed and weighed, and the tumor inhibition rate was calculated by the formula: [([…])/average tumor weight of the control group]×100%.

colorectal cancer (MC38) [3] = experiment: colorectal cancer (MC38) tumor-bearing model in C57BL/6 mice, GSK583 combined with pembrolizumab; conditions: Day 20; pembrolizumab 150 μg/mouse i.p.; GSK583 1 mg/kg i.v. once every 4 days; compared to IgG control
Procedure: as §1, with “pembrolizumab (Merck & Co., Inc.)” for “atezolizumab (Roche)”
as §2
According to the method shown in (A and B of FIG. 7), the mice were subcutaneously inoculated with MC38 cells at a concentration of 5×10^6 cells/mL and 0.1 mL/mouse. When the tumor grew to a volume within the range of 100 mm^3, the mice were randomly divided into 3 groups based on tumor volume, with 6 to 7 mice per group, and dosing was initiated. […] The day of grouping and dosing was recorded as Day 0. During the dosing process, the animals were weighed every 2 to 3 days, and the long and short diameters of the tumor were measured with a vernier caliper. The tumor size was calculated by the formula: (½)×long diameter×(short diameter)^2. […]

Row | Compound | tumor growth (tumor volume progression) (colorectal cancer (MC38) [1]) | inhibitory effect on tumor growth, RIP2−/− mice compared to WT mice (colorectal cancer (MC38) [2]; 150 μg/mouse i.p., tumor volume) | tumor growth (tumor volume progression) (colorectal cancer (MC38) [2]; RIP2−/− mice, compared to RIP2−/−-IgG control) | tumor weight (colorectal cancer (MC38) [2]; RIP2−/− mice, end of dosing (Day 20)) | tumor growth (tumor volume progression) (colorectal cancer (MC38) [2]; WT mice, compared to WT-IgG control) | tumor weight (colorectal cancer (MC38) [2]; WT mice, end of dosing (Day 20)) | anti-tumor effect (tumor weight, tumor weight inhibition rate), RIP2−/− mice compared to WT mice (colorectal cancer (MC38) [2]; end of dosing (Day 20)) | tumor weight (colorectal cancer (MC38) [1]; end of dosing (Day 15), compared to control group) | tumor growth (tumor volume progression) (colorectal cancer (MC38) [3])
1 | CC(C)(C)S(=O)(=O)c1ccc2nccc(Nc3n[nH]c4ccc(F)cc34)c2c1 [GSK583] | no significant inhibitory effect on tumor growth |  |  |  |  |  |  |  | 
2 | atezolizumab: programmed death-ligand 1 (PD-L1) inhibitor, atezolizumab (Roche) | significantly inhibited tumor growth | significantly improved | significantly inhibited tumor growth | significantly reduced tumor weight | significantly inhibited tumor growth | significantly reduced tumor weight | significantly stronger than that in WT mice | significantly lower than that in the control group | 
3 | pembrolizumab: programmed death 1 (PD-1) inhibitor, pembrolizumab (Merck & Co., Inc.) |  |  |  |  |  |  |  |  | significantly inhibited tumor growth
